Source: patent US20070014734A1, “Glucuronidated nebivolol metabolites” (priority 2005, published 2007)

Legend:
human endothelial cells = experiment: Acute ONOO− (peroxynitrite) release from human endothelial cells of white and black donors; format: cell-based; details: acute treatment; for Acute ONOO− Release, Black Donors ONOO−: endothelial cells from black donors; for Acute ONOO− Release, White Donors ONOO−: endothelial cells from white donors; for ONOO− (peroxynitrite) release (in words): human endothelial cells
Description: The donors were between 20-25 years of age, with a mean body mass index (in kg/m^2), of 22.6±1.4 for white donors and 23.1±1.7 for black donors. The identification of race was defined by self report. For FIGS. 1-3, the HUvEC samples were obtained from American Type Culture Collection (Manassas, Va.). […] However, the amount of OONO^− produced for any of the metabolites was less than that observed for nebivolol. The ratio of NO to OONO^− produced by nebivolol and its glucuronide metabolites was similar following acute administration (Table 4).

[1] = tested on: Human Umbilical Vein Endothelial Cells (HUVEC); experiment: Acute NO release from HUVEC of white and black American donors, electrochemical nanosensors; format: cell-based; details: for Acute NO Release, Black Donors NO: HUVEC from black American donors; for Acute NO Release, Black Donors NO / Acute NO Release, White Donors NO: acute treatment 1.0 μM, mean±S.D. (n=5); for Acute NO Release, White Donors NO: HUVEC from white donors; for Acute [NO]/[ONOO−] Release Ratio, Black Donors / Acute [NO]/[ONOO−] Release Ratio, White Donors: ratio of NO (Table 1) to ONOO− (Table 3); for NO release after acute treatment (in words): endothelial cells from both white and black American donors, 1.0 μM
Experimental: The acute effects of nebivolol racemate, its separate enantiomers, and four stereoselective glucuronide metabolites on endothelial-dependent NO release were tested in Human Umbilical Vein Endothelial Cells (HUVEC). The tissue is isolated from normotensive white and black American donors with matched risk factor profiles. Production of NO is recorded using electrochemical nanosensors following acute treatment with the drugs at 1.0 μM (n=5).
The donors were between 20-25 years of age, with a mean body mass index (in kg/m^2), of 22.6±1.4 for white donors and 23.1±1.7 for black donors. The identification of race was defined by self report. For FIGS. 1-3, the HUvEC samples were obtained from American Type Culture Collection (Manassas, Va.).
The baseline is stabilized after about 20 seconds.
Nanosensors are prepared from carbon fibers.

| Structure (SMILES) | Acute ONOO− Release, Black Donors ONOO− (human endothelial cells) [nM] | Acute ONOO− Release, White Donors ONOO− (human endothelial cells) [nM] | Acute NO Release, Black Donors NO [1] [nM] | Acute NO Release, White Donors NO [1] [nM] | Acute [NO]/[ONOO−] Release Ratio, Black Donors [1] | NO release after acute treatment (in words) [1] | Acute [NO]/[ONOO−] Release Ratio, White Donors [1] | ONOO− (peroxynitrite) release (in words) (human endothelial cells) |
| --- | --- | --- | --- | --- | --- | --- | --- | --- |
| O[C@@H](CNC[C@H](O)[C@H]1CCc2cc(F)ccc2O1)[C@@H]1CCc2cc(F)ccc2O1 [l-nebivolol, reference compound] | 267 ± 13 | 223 ± 17 | 192 ± 9 | 268 ± 12 | 0.719 | marked improvement | 1.202 |  |
| O=C(O)C1OC(OC(CNCC(O)C2CCc3cc(F)ccc3O2)C2CCc3cc(F)ccc3O2)C(O)C(O)C1O [G-UDa, d-Nebivolol-11-O-β-D-glucuronide] | 238 ± 22 | 180 ± 16 | 144 ± 10 | 202 ± 12 | 0.605 |  | 1.122 | greatest activity |
| O=C(O)C1OC(OC(CNCC(O)C2CCc3cc(F)ccc3O2)C2CCc3cc(F)ccc3O2)C(O)C(O)C1O [G-UDc, d-Nebivolol-11′-O-β-D-glucuronide] | 204 ± 13 | 166 ± 13 | 129 ± 10 | 188 ± 12 | 0.632 |  | 1.133 |  |
| O[C@H](CNC[C@@H](O)[C@H]1CCc2cc(F)ccc2O1)[C@@H]1CCc2cc(F)ccc2O1 [d-nebivolol, reference compound] | 116 ± 6 | 87 ± 6 | 87 ± 6 | 127 ± 17 | 0.750 | marked improvement | 1.460 |  |
| O=C(O)C1OC(OC(CNCC(O)C2CCc3cc(F)ccc3O2)C2CCc3cc(F)ccc3O2)C(O)C(O)C1O (single isomer, unassigned) [G-UDd, l-Nebivolol-11′-O-β-D-glucuronide] | 193 ± 17 | 135 ± 13 | 117 ± 8 | 161 ± 11 | 0.606 |  | 1.193 |  |
| OC(CNCC(O)C1CCc2cc(F)ccc2O1)C1CCc2cc(F)ccc2O1 (racemic) [nebivolol, α,α′-[iminobismethylene]bis[6-fluoro-3,4-dihydro-2H-1-benzopyran-2-methanol]] | 242 ± 17 | 193 ± 16 | 148 ± 10 | 218 ± 11 | 0.612 | marked improvement | 1.130 |  |
| O=C(O)C1OC(OC(CNCC(O)C2CCc3cc(F)ccc3O2)C2CCc3cc(F)ccc3O2)C(O)C(O)C1O (single isomer, unassigned) [G-UDb, l-Nebivolol-11-O-β-D-glucuronide] | 225 ± 16 | 180 ± 13 | 139 ± 12 | 206 ± 12 | 0.618 |  | 1.144 | greatest activity |
